Data on 24 compounds can be found in patent EP0866075B1, “Method to treat microbial infections by uncoupling of phosphotransferase system and appropriate agents therefor” (Arpida AG,, priority 1997, dated 1998).

In brackets after ≈: the same amount, converted by molar mass. No end group written: not given here.

The target in one assay is T1, enzyme I (Escherichia coli, UniProt P08839).
T1 construct: 3 µM each of purified HPr and enzyme I (Mao et al., 1995); made in house
Kind of assay: biochemical. The arrangement: species or system E. coli.
Details: not given
From the text:
Fig. 2. Assays for the screening, selection and characterization of inhibitory compounds from combinatorial libraries. Reaction products that can be determined experimentally are boxed. The inhibitory compound X can be in soluble form, immobilized on a filamentous phage, or bound to a microtiter well. The transporter for GlcNAc (shaded in grey) contains the IIA, IIB and IIC functional units as domains of a single polypeptide chain. • (a) Binding of Enzyme I to immobilized ligands, e.g. filamentous phages from a phage display library or synthetic peptides from a combinatorial peptide library was detected using [^1251]-Enzyme I and autoradiography. • (b) Phosphorylation by Enzyme I. To identify peptides and filamentous phages displaying a peptide which can be phosphorylated by Enzyme 1, support based peptide libraries and immobilized peptide-displaying phages were incubated over night with enzyme I in the presence of [^32P]phosphoenolpyruvate, and the phosphorylated species were detected with a PhosphorImager. […] A conventional and well established assay to colorimetrically detect the formation of inorganic phosphate has been adapted to the specific needs. The assay can be performed in microtiter plates and quantitated with a microplate photoreader. Another assay to monitor phosphatase activity of soluble compounds is based on the detection of pyruvate which is continuously produced from phosphoenolpyruvate whenever enzyme I is dephosphorylated. The enzyme I-specific phosphatase activity of soluble compounds can be detected from the pyruvate burst. The rate of pyruvate formation is monitored with lactate dehydrogenase and NADH. The assay can be performed in microtiter plates and quantitated with a microplate photoreader. • (d) Inhibition of in vitro PTS activity. The inhibitory activity of soluble compounds can be measured quantitatively in the sugar phosphotransferase assay in the presence of the purified PTS proteins and with [^14C]GlcNAc ([^14C]N-acetyl-glucosamine) or (14C] Glc ([^14C]glucose) as terminal phosphate acceptor (Emi et al., 1982). • (e) Inhibition of PTS activity in bacteria. Compounds that specifically interfere with the PTS can also be detected in bacteria. Indicator E. coli (or any other bacteria) will be plated an two defined minimal salts media containing either glucose or a nonPTS Substrate e.g. lactose as the only carbon source. Compounds from chemical libraries are applied to both cultures.
Inhibition of phosphotransferase activity by soluble peptides. This assay measures the inhibition of enzyme I dependent sugar phosphorylation activity. […] The purified N-acetylglucosamine transporter (II^GlcNAc) of E.coli (Mukhija and Erni, 1996) was used as the sugar specific component. The reaction mixture contained per 100 µl, 100 µg phosphatidyl glycerol from egg yolk (Sigma), 50 mM KPi, pH 7.5, 2.5 mM dithiothreitol, 2.5 mM NaF, 5 mM MgCl2, […] (potassium salt, Sigma), 0.5 mM [U-^14C]GlcNAc (New England Nuclear; 56.3 mCi/mmol, diluted to 1000 cpm/nmol), and 3 µM each of purified HPr and enzyme I (Mao et al., 1995). The reaction was started by addition of 0.1 µg of II^GlcNAc. After incubation for 30 min at 37°C, the reaction was stopped by adding 1 ml ice-cold water. GlcNAc-6-Phosphate was separated from free GlcNAc by anion-exchange chromatography on AG-1-X2 (50-100 mesh, Biorad). Activity is expressed as nmoles of sugar-P formed after 30 min. The HPr concentration was adjusted such that it was rate limiting in the overall phosphotransferase reaction. The inhibitory peptides were added to concentrations of 25 µM to 10 mM. Phosphorylation of GlcNAc in the absences of peptide was taken as 100%.
By IC50 is commonly meant the midpoint of a concentration-inhibition curve. Compound KKFHLRK [peptide 1, KKFHLRK] displayed an IC50 of 150 µM.

Staying with this assay, now noted: peptides from support-based combinatorial libraries; 30 min at 37°C, HPr rate limiting.
Turning to KKFALRK [compound 2, KKFALRK], the “inhibition IC50” value was “none”.

The assay is the same for the next values; noted with them: peptides from support-based combinatorial libraries; 30 min at 37°C, HPr rate limiting; read-out: inhibition IC50.
KGWHKRKK [compound 6]: the IC50 was determined as 530 µM. Still for that read-out and setting: then KKFDLRK [compound 3, KKFDLRK], with 820 µM. The same measure, in the same setting: the value for KKFHIRKR [compound 9] was 160 µM.

In the case of KKWHKRKK [compound 8], the IC50 was found to be 440 µM. On the same count and under the same terms, then KKWHLRKR [compound 5], with 30 µM. Still for that read-out and setting: then KKWHRRKK [compound 7], with 300 µM.

The same assay, now with this note: peptides identified by phage display; 30 min at 37°C, HPr rate limiting; read-out: inhibition IC50.
For the compound Ac-DGARLHYLF [compound 23], the IC50 came to 7600 µM.

Consider DGARLHYLF [compound 22], for which the IC50 amounted to 1200 µM. On the same count and under the same terms, then GLRFGKTRVHYLVLG [compound 14], with 25 µM; and KISRHGKRGK [compound 18], with 140 µM; and KISRHGRPTG [compound 19], with 1070 µM. Take KMSRHRKPGA [compound 16]: the IC50 was 100 µM. On the same count and under the same terms, the value for MSRHRN [compound 29, MSRHRN] was 760 µM; that for RHITLF [compound 28, RHITLF] was 1380 µM. As to RHITSL [compound 27, RHITSL], the IC50 turned out to be 650 µM.

In the case of RHRTLF [compound 25, RHRTLF], the IC50 came out at 410 µM. Still for that read-out and setting: the value for RHWSIF [compound 24, RHWSIF] was 400 µM; that for RHYLLF [compound 26, RHYLLF] was 500 µM. Take RIHFIPRRGR [compound 20]: the IC50 was 280 µM. Still for that read-out and setting: the value for RLHYLF [compound 21, RLHYLF] was 375 µM; that for SGRKSTRVHHWLLVL [compound 15] was 60 µM.

The next assay concerns E. coli K-12 UT580. As to the kind of experiment: Growth inhibition assay (filter discs on LB soft agar). Type of assay: cell-based. Particulars: E. coli K-12 UT580, LB agar, over night at 37°C. The text has this: Fig. 4. Growth inhibition of E. coli K12 UT580. […]
As for KKFHLRK [peptide 1, KKFHLRK], the “growth inhibition MIC” value was determined as 125.8 µM.

As for KKWHLRKR [compound 5], the “growth inhibition MIC” value is 63.0 µM.

Another assay concerns E. coli K-12 UT580. As to the kind of experiment: microbe, parasite or virus in culture. The conditions noted are these: Escherichia coli, K12UT580, 24 h, read-out: growth inhibition MIC.
Procedure: Growth inhibition assay. An over night culture of E. coli K-12 UT580 grown in LB-medium was diluted 1:30 into soft agar (0.7% agarose in LB broth) at 40°C, and 3 ml of the diluted cell suspension were spread an LB agar plates. Filter discs (4.4 mm diameter) were placed in regular intervals on the solidified top agar. To each filter was added 10 µl of one of the different peptide stock solutions (20 µM to 80 µM). The agar plates were incubated over night at 37°C. The area of the clear zone around each filter disc was determined. The clear area is taken as a measure for the growth inhibitory activity of the peptide.
Growth inhibition of E. coli K12 UT580. Peptides were added to filter discs and placed onto a cell culture in LB soft agar. The clear zones are indicative of growth inhibition (panel A).
`CN(C)[C@@H]1C(O)=C(C(N)=O)C(=O)[C@@]2(O)C(O)=C3C(=O)c4c(O)cccc4[C@@](C)(O)[C@H]3C[C@@H]12` [tetracycline]: the MIC came to 2.5 µM (≈ 1.11 µg/mL).
